Source: US20180168208A1 (priority 2014, published 2018)
Like-named read-outs stand apart in the source and are kept apart here.

Key:
cat T1R1/T1R3 receptor = molecular target: T1, cat T1R1/T1R3 receptor (Felis catus, UniProt A0ABI7Z2I4); experiment: cell-based; conditions: for function as activators of T1R1/T1R3 (in words): in the presence of alanine
T1 sequence (A0ABI7Z2I4 171-420): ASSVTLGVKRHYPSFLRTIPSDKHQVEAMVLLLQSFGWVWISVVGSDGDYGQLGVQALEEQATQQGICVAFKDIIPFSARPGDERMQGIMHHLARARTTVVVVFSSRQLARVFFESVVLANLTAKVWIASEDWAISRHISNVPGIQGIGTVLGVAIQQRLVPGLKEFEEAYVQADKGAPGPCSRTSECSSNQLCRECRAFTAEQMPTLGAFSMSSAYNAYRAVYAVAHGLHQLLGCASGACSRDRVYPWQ
T1 sequence (Q49KI5 25-865 E206Q/N523D/F654L partner): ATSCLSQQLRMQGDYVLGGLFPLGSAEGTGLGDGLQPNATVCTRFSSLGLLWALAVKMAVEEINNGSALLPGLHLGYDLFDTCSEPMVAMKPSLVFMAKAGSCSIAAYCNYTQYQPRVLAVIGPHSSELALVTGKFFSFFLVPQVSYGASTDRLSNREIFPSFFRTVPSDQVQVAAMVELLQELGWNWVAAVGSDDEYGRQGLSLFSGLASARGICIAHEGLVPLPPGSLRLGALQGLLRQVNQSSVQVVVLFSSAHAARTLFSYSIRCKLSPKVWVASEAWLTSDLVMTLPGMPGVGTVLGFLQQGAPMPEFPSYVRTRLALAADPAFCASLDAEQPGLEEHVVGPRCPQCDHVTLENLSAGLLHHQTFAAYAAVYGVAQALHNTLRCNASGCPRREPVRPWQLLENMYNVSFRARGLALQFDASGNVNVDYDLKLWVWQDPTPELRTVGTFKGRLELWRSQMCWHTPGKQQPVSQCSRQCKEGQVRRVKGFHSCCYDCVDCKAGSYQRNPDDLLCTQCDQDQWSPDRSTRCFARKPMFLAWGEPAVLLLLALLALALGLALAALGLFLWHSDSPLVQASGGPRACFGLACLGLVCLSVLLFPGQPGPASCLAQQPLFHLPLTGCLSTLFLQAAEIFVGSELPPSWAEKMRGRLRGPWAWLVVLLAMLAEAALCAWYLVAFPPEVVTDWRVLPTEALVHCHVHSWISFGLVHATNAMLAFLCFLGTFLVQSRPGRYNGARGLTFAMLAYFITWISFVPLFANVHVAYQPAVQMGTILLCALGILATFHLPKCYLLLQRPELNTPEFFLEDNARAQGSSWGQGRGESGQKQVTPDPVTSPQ
Excerpt: (§1) HEK293 cells that stably express T1R3 and inducibly express T1R1 were exposed to nucleotide derivatives alone or in combination with one or more amino acids and/or one or more nucleotides to activate the umami receptor. Activation of the T1R1/T1R3 receptor was detected by a change in intracellular calcium levels using a calcium sensitive fluorescent dye and/or a luminescent reporter system. Cells that express T1R3 but not T1R1 were used as a control. A FLIPR® Tetra or a FlexStation® 3 was used for data capture.

T1R1/T1R3 receptor = T1R1/T1R3 receptor (Felis catus, UniProt E3UMS2); experiment: cell-based; format: cell-based
Excerpt: as §1, with “transmembrane compounds” for “nucleotide derivatives”, “dye.” for “dye and/or a luminescent reporter system.”
In each experiment, serial dilutions of up to 10 mM of the transmembrane compound were added to the T1R1/T1R3-expressing cells.

Compound | Activity (cat T1R1/T1R3 receptor) | Threshold (cat T1R1/T1R3 receptor) | Max resp. (ΔF/F) (cat T1R1/T1R3 receptor) | Max. resp. % of IMP (cat T1R1/T1R3 receptor) | also measured
Nc1ncnc2c1ncn2[C@H]1C[C@H](O)[C@@H](COP(=O)(O)O)O1 [2′-Deoxyadenosine 5′-monophosphate] | active | 0.035 mM |  |  | EC50 (cat T1R1/T1R3 receptor): 140 µM
Nc1ncnc2c1ncn2[C@H]1C[C@H](OP(=O)(O)O)[C@@H](COP(=O)(O)O)O1 [2′-Deoxyadenosine-3′,5′-O-bisphosphate] | active |  |  |  | 
Nc1ncnc2c1ncn2C1CC(O)C(COP(O)(O)=S)O1 (stereo not shown) [2′-Deoxyadenosine-5′-O-monophosphorothioate] | active | 0.015 mM |  |  | 
Nc1nc2c(ncn2C2CC(OP(=O)(O)O)C(COP(=O)(O)O)O2)c(=O)[nH]1 (stereo not shown) [2′-Deoxyguanosine-3′,5′-O-bisphosphate] | active | 0.005 mM | 1.8925 ΔF/F | 152.3 % of IMP | function as activators of T1R1/T1R3 (in words) (cat T1R1/T1R3 receptor): activators of T1R1/T1R3
Nc1nc2c(ncn2C2CC(O)C(COP(O)(O)=S)O2)c(=O)[nH]1 (stereo not shown) [2′-Deoxyguanosine-5′-O-monophosphorothioate] | active | 0.0025 mM | 1.0775 ΔF/F | 86.7 % of IMP | function as activators of T1R1/T1R3 (in words) (cat T1R1/T1R3 receptor): activators of T1R1/T1R3
Nc1nc2c(ncn2[C@H]2C[C@H](O)[C@@H](COP(O)(O)=S)O2)c(=O)[nH]1 [2′-Deoxyguanosine-5′-O-monophosphorothioate] | active | 0.005 mM |  |  | function as activators of T1R1/T1R3 (in words) (cat T1R1/T1R3 receptor): activators of T1R1/T1R3
O=c1[nH]cnc2c1ncn2C1CC(O)C(COP(O)(O)=S)O1 (stereo not shown) [2′-Deoxyinosine-5′-O-monophosphorothioate] | active | 0.025 mM |  |  | 
O=c1ccn([C@H]2C[C@H](O)[C@@H](COP(O)(O)=S)O2)c(=O)[nH]1 [2′-Deoxyuridine-5′-O-monophosphorothioate (5′-dUMPS)] |  | 5.000 mM | 0.4200 ΔF/F | 43.4 % of IMP | 
O=c1ccn([C@H]2C[C@H](O)[C@@H](COP(O)(O)=S)O2)c(=O)[nH]1 [2′-Deoxyuridine-5′-O-monophosphorothioate] |  |  |  |  | EC50 (cat T1R1/T1R3 receptor): > 30000 µM
O=c1ccn([C@H]2C[C@H](O)[C@@H](COP(O)(O)=S)O2)c(=O)[nH]1 [2′-Deoxyuridine-5′-O-monophosphosphorothioate (5′-dUMPS)] | active | 5.000 mM | 0.4200 ΔF/F | 43.4 % of IMP | 
NC(=O)c1ncn(C2OC(COP(=O)(O)O)C(O)C2O)c1N [5-Aminoimidazole-4-carboxamide-1-β-D-ribofuranosyl 5′-monophosphate] | active | 0.200 mM |  |  | EC50 (cat T1R1/T1R3 receptor): > 1000 µM
O=P(O)(O)OCC1OC(n2cnc3c(Cl)ncnc32)C(O)C1O (stereo not shown) [6-Chloropurineriboside-5′-O-monophosphate] | active |  | 1.5325 ΔF/F | 123.3 % of IMP | 
CCC(CC)NC(=O)c1ccc2c(c1)OCCO2 [N-(pentan-3-yl)-2,3-dihydrobenzo[b][1,4]dioxine-6-carboxamide] |  |  |  |  | Thres +Alanine (T1R1/T1R3 receptor; + Alanine (20 nM), Table 17): 0.3 mM; Max resp % of IMP + Alanine (T1R1/T1R3 receptor; + Alanine, Table 17): 25.2 % of IMP; Max resp ΔF/F +Alanine (T1R1/T1R3 receptor; + Alanine, Table 17): 0.3125; EC50 (T1R1/T1R3 receptor; + Alanine, Table 17, read-out: EC50 + Alanine): > 1000 µM; Max resp % of ALa + IMP (T1R1/T1R3 receptor; + IMP (0.2 mM), Table 17): 70.9 % of ALa; Thres + IMP (T1R1/T1R3 receptor; + IMP (0.2 mM), Table 17): 0.075 mM; Max resp ΔF/F +Alanine (T1R1/T1R3 receptor; +Alanine (20 mM), Table 18): 0.3125; Thres +Alanine (T1R1/T1R3 receptor; +Alanine (20 mM), Table 18): 0.3 mM; EC50 (T1R1/T1R3 receptor; +Alanine (20 mM), Table 18, read-out: EC50 +Alanine): > 1000 µM; Max resp % of Ala +IMP (T1R1/T1R3 receptor; +IMP (0.2 mM), Table 18): 70.9 % of Ala; Max resp ΔF/F +IMP (T1R1/T1R3 receptor; +IMP (0.2 mM), Table 18): 0.8725; EC50 (T1R1/T1R3 receptor; EC50 + IMP, + IMP (0.2 mM), Table 17): 300 µM; EC50 (T1R1/T1R3 receptor; EC50 +Alanine + IMP, +Alanine (20 mM) + IMP (0.2 mM), Table 18): 200 µM; EC50 (T1R1/T1R3 receptor; EC50 +IMP, +IMP (0.2 mM), Table 18): 300 µM; EC50 (T1R1/T1R3 receptor; compound alone in buffer, Table 17, read-out: EC50 + buffer (alone)): > 1000 µM; EC50 (T1R1/T1R3 receptor; compound alone in buffer, Table 18, read-out: EC50 +buffer (alone)): > 1000 µM
N[C@@H](Cc1ccccc1)C(=O)O [Phenylalanine, phenylalanine] |  |  |  |  | EC50 (T1R1/T1R3 receptor; EC50 - with IMP (0.2 mM), with 0.2 mM IMP): 3400 ± 700 µM
